Laboratory results reported in ChEMBL document CHEMBL1147701, “Novel 4-anilinoquinazolines with C-6 carbon-linked side chains: synthesis and structure-activity relationship of a series of potent, orally active, EGF receptor tyrosine kinase inhibitors” (Bioorg Med Chem Lett, 2006).

Assays:
[1] = target: T1, Serine/threonine-protein kinase Sgk1 (Homo sapiens, UniProt O00141); test: Inhibition of SGK
T1 sequence (O00141 whole entry): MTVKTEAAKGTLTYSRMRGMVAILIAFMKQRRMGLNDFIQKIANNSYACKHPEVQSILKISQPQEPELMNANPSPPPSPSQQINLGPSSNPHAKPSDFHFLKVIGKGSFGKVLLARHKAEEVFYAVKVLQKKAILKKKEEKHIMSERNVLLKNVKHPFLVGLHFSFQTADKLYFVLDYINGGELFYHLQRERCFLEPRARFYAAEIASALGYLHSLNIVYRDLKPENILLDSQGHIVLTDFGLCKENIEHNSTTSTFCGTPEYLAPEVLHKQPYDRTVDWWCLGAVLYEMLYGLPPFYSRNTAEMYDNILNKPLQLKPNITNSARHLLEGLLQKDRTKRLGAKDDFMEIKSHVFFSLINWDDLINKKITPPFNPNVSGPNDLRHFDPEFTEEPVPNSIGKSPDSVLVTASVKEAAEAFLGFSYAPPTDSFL

[2] = target: Mitogen-activated protein kinase 1 (Homo sapiens, UniProt P28482); test: Inhibition of MAPK
[3] = target: c-Jun N-terminal kinase, JNK (Homo sapiens, UniProt P45983+P53779+P45984); test: Inhibition of JNK; format: protein assay
[4] = target: Proto-oncogene tyrosine-protein kinase Src (Homo sapiens, UniProt P12931); test: Inhibition of Src
[5] = target: Glycogen synthase kinase-3 beta (Homo sapiens, UniProt P49841); test: Inhibition of GSK3-beta
[6] = target: AMP-activated protein kinase, AMPK; test: Inhibition of AMPK; format: protein-complex assay
[7] = target: T2, Serine/threonine-protein kinase Chk1 (Homo sapiens, UniProt O14757); test: Inhibition of CHK1
T2 sequence (O14757 whole entry): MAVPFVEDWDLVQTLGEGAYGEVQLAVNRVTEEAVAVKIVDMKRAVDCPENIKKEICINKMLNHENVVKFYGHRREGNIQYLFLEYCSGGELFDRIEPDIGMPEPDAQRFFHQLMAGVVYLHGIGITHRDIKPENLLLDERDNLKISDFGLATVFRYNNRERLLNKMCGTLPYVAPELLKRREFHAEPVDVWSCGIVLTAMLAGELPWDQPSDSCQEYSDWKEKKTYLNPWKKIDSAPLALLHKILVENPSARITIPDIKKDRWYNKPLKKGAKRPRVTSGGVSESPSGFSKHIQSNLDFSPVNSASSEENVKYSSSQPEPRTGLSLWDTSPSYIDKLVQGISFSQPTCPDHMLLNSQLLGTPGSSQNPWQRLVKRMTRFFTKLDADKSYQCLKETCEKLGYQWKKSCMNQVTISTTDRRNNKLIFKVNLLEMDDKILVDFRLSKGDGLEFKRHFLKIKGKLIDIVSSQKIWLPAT

[8] = target: Rho-associated protein kinase 2 (Homo sapiens, UniProt O75116); test: Inhibition of ROCK2
[9] = target: Vascular endothelial growth factor receptor 2 (Homo sapiens, UniProt P35968)
[10] = target: cAMP-dependent protein kinase (PKA) (Homo sapiens, UniProt P22694+P17612+P22612); test: Inhibition of PKA; format: protein assay
[11] = Inhibition of CDK
[12] = target: Tyrosine-protein kinase Lck (Homo sapiens, UniProt P06239)
MAP kinase p38 = MAP kinase p38 (Homo sapiens, UniProt O15264+Q15759+Q16539+P53778)

Measured: IC50

Chain of Proto-oncogene tyrosine-protein kinase Src (P12931 2-536 limits assumed): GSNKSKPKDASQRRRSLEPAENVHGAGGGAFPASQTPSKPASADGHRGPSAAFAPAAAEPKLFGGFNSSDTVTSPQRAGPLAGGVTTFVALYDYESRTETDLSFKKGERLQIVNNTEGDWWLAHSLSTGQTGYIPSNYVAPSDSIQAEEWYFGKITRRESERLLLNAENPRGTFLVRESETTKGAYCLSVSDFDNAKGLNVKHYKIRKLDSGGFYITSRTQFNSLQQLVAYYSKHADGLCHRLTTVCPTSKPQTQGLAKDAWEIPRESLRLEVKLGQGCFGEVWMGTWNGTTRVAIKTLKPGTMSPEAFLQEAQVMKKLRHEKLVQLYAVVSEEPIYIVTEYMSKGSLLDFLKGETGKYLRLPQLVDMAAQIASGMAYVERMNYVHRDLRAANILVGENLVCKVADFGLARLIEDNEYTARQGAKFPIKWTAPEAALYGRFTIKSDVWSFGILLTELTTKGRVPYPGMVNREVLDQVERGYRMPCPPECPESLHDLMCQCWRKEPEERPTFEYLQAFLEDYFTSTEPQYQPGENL
Chain of Rho-associated protein kinase 2 (O75116 whole entry): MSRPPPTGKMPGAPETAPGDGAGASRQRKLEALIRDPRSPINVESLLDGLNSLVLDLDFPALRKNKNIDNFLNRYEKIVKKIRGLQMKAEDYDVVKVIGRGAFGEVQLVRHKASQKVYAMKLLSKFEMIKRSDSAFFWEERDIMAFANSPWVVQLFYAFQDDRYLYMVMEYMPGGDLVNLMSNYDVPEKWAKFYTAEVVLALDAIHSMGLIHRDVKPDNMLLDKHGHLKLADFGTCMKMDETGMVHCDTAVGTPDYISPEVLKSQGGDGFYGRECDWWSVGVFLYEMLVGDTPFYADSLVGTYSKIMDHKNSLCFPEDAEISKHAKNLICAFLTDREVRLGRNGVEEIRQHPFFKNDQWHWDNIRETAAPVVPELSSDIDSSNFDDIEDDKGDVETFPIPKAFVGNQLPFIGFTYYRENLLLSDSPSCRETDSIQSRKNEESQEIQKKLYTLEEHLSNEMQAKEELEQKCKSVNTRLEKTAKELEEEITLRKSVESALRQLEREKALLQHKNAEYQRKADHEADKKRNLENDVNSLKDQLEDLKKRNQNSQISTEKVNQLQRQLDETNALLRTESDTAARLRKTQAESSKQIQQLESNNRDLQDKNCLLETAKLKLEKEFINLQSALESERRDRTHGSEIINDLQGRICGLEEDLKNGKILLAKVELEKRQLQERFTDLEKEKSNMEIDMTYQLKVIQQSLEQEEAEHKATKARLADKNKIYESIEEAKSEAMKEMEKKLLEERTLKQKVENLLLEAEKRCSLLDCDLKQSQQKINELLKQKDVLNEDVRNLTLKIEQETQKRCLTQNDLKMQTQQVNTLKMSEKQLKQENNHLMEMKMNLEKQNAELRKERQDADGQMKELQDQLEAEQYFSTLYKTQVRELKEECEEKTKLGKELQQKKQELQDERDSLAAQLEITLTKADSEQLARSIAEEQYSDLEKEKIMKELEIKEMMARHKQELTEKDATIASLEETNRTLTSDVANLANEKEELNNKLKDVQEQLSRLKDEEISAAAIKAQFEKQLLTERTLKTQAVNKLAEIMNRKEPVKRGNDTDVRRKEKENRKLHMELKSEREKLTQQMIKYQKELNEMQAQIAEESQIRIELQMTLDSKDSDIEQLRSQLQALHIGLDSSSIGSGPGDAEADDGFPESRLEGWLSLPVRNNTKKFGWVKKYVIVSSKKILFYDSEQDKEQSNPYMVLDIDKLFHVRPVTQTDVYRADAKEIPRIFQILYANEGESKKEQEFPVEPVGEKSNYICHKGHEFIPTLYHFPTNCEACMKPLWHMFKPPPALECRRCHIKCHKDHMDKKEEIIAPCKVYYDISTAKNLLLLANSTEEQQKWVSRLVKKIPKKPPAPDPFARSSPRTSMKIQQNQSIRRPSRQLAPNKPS
Chain of Mitogen-activated protein kinase 1 (P28482 whole entry): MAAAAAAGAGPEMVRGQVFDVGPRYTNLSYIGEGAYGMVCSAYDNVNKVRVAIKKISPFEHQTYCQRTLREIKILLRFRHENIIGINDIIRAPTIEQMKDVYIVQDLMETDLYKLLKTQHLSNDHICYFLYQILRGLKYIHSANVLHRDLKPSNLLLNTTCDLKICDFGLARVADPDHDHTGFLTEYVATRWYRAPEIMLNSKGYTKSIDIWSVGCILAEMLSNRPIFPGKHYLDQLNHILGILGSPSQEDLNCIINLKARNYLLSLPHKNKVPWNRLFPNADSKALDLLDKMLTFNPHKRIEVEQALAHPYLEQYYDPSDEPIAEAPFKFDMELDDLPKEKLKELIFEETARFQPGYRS
Chain of Vascular endothelial growth factor receptor 2 (P35968 whole entry): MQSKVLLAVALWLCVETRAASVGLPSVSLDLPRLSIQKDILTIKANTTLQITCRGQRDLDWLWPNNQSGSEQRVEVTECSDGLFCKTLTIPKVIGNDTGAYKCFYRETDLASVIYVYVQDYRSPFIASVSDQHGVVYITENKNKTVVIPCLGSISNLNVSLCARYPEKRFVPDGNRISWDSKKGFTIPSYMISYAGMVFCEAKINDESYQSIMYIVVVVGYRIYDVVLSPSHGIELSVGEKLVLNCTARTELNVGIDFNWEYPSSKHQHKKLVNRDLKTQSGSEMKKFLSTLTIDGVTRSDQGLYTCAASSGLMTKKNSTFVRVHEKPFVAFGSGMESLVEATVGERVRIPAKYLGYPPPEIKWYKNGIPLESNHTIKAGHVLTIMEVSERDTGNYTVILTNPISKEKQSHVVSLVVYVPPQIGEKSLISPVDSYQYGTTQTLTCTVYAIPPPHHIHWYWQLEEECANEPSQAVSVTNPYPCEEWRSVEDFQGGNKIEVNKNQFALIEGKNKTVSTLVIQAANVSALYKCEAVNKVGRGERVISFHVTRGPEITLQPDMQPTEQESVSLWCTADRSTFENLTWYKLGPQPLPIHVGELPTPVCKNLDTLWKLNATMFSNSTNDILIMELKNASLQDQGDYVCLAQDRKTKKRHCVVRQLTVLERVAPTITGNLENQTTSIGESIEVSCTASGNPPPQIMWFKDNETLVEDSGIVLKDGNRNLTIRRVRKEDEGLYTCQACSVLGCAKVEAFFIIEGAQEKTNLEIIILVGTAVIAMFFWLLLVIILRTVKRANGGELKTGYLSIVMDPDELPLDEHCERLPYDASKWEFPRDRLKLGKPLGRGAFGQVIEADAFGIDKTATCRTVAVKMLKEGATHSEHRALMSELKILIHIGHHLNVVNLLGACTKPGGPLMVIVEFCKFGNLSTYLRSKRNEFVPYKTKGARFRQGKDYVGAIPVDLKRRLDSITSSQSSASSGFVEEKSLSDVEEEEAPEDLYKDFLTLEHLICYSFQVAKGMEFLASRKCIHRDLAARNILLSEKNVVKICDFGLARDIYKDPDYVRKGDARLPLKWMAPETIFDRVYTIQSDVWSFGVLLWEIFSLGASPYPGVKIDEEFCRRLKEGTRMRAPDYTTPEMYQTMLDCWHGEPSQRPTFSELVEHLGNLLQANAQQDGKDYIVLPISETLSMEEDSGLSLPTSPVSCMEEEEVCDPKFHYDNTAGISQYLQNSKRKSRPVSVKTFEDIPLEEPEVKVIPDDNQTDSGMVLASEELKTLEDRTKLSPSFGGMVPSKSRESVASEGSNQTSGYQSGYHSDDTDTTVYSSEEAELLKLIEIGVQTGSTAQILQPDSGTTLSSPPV
Chain of Glycogen synthase kinase-3 beta (P49841 whole entry): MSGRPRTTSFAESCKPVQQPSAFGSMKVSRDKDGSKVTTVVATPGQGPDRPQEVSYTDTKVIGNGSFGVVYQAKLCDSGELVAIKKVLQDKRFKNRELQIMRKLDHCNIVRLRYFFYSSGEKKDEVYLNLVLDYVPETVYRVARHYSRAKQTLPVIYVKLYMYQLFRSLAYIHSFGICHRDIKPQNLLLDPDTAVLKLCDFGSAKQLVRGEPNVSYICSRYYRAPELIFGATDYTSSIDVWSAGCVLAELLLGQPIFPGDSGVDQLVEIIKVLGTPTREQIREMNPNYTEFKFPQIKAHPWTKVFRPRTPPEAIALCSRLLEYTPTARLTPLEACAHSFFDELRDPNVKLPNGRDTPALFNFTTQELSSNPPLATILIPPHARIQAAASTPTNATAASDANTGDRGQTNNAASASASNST
Chain of Tyrosine-protein kinase Lck (P06239 whole entry): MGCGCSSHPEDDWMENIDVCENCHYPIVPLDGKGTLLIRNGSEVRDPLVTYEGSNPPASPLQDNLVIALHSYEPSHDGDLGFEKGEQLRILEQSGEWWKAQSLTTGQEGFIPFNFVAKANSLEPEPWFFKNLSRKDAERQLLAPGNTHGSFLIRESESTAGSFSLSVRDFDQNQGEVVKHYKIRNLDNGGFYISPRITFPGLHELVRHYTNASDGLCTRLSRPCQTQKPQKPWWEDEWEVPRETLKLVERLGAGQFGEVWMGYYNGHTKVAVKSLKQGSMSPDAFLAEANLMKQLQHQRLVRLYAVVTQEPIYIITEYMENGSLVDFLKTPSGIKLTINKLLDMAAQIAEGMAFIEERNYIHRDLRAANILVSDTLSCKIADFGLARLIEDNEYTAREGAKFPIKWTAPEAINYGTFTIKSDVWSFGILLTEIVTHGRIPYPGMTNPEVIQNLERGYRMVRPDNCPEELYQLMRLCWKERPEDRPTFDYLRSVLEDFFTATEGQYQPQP

COc1cc2ncnc(Nc3cccc(Cl)c3F)c2cc1CN1C[C@H](OC)C[C@@H]1C(N)=O
not listed: [10] | [11] | [12] | MAP kinase p38
> 10 µM: all other assays above

COc1cc2ncnc(Nc3cccc(Cl)c3F)c2cc1CN1CCCC[C@@H]1C(N)=O
> 10 µM: all assays above

COc1cc2ncnc(Nc3cccc(Cl)c3F)c2cc1CN1CCCC1
not listed: [11] | MAP kinase p38
> 10 µM: all other assays above

COc1cc2ncnc(Nc3cccc(Cl)c3F)c2cc1CN1CC(C(N)=O)C1
not listed: [11] | [12] | MAP kinase p38
> 10 µM: all other assays above

COc1cc2ncnc(Nc3cccc(Cl)c3F)c2cc1CN(C)[C@H](C)C(=O)N(C)C
not listed: [11] | [12] | MAP kinase p38
> 10 µM: all other assays above

COc1cc2ncnc(Nc3cccc(Cl)c3F)c2cc1CN1CCC1C(N)=O (configuration not stated)
not listed: [11] | [12]
> 10 µM: all other assays above

COC[C@@H](C(N)=O)N(C)Cc1cc2c(Nc3cccc(Cl)c3F)ncnc2cc1OC
not listed: [11] | [12]
> 10 µM: all other assays above

COc1cc2ncnc(Nc3cccc(Cl)c3F)c2cc1CN1CCN(C)CC1C(N)=O (configuration not stated)
not listed: [11] | [12]
> 10 µM: all other assays above

COCC[C@@H](C(N)=O)N(C)Cc1cc2c(Nc3cccc(Cl)c3F)ncnc2cc1OC
> 10 µM: all assays above

COc1cc2ncnc(Nc3cccc(Cl)c3F)c2cc1CN(C)[C@@H](CO)C(N)=O
not listed: [11] | [12]
> 10 µM: all other assays above

COc1cc2ncnc(Nc3cccc(Cl)c3F)c2cc1CN(C)[C@@H](CN(C)C)C(N)=O
> 10 µM: all assays above

COc1cc2ncnc(Nc3cccc(Cl)c3F)c2cc1CN1CCC[C@H]1CC(N)=O
> 10 µM: all assays above

COc1cc2ncnc(Nc3cccc(Cl)c3F)c2cc1CN(CCN(C)C)[C@@H](C)C(N)=O
not listed: [11] | MAP kinase p38
> 10 µM: all other assays above

COc1cc2ncnc(Nc3cccc(Cl)c3F)c2cc1CN1CCOCC1C(N)=O (configuration not stated)
not listed: [11] | MAP kinase p38
> 10 µM: all other assays above

COc1cc2ncnc(Nc3cccc(Cl)c3F)c2cc1CN1CC[C@H](C(N)=O)C1
not listed: [10] | [11] | MAP kinase p38
> 10 µM: all other assays above

COc1cc2ncnc(Nc3cccc(Cl)c3F)c2cc1CN1CCC[C@@H]1C(N)=O
not listed: MAP kinase p38
> 10 µM: all other assays above

COc1cc2ncnc(Nc3cccc(Cl)c3F)c2cc1CN(C)C1CCNC1=O (configuration not stated)
not listed: [11] | [12]
> 10 µM: all other assays above

COc1cc2ncnc(Nc3ccc(F)c(Cl)c3)c2cc1CN1CCC[C@H]1C(N)=O
not listed: [12]
> 10 µM: all other assays above

COc1cc2ncnc(Nc3ccc(F)c(Cl)c3)c2cc1CN1CCC[C@@H]1C(N)=O
not listed: [12]
> 10 µM: all other assays above

COCCN(Cc1cc2c(Nc3cccc(Cl)c3F)ncnc2cc1OC)[C@@H](C)C(N)=O
not listed: [11] | MAP kinase p38
> 10 µM: all other assays above

COc1cc2ncnc(Nc3cccc(Cl)c3F)c2cc1CN1CCC[C@@H]1C(=O)N(C)C
not listed: [11] | [12] | MAP kinase p38
> 10 µM: all other assays above

CNC(=O)[C@H]1CCCN1Cc1cc2c(Nc3cccc(Cl)c3F)ncnc2cc1OC
not listed: [11] | [12]
> 10 µM: all other assays above
